In patent publication US20190284168A1, “PYRAZOLE DERIVATIES AS SGC STIMULATORS” (IRONWOOD PHARMACEUTICALS, INC., priority 2014, published 2019):

Experiments:
[1] = test system: lambs with acute pulmonary hypertension; conditions: cited from earlier work; for effect on mean arterial pressure / pulmonary vasodilation / transpulmonary cGMP release / systemic arterial oxygenation: inhaled microparticles, awake lambs; for effect on mean arterial pressure / pulmonary vasodilation / transpulmonary cGMP release: U-46619 infusion
[2] = molecular target: T1, human recombinant soluble guanylate cyclase enzyme α1β1 (Homo sapiens, UniProt Q02108+Q02153); assay: Purified human recombinant sGC α1β1 enzyme assay in the presence of DETA-NONOate (cGMP HTRF); type: biochemical; conditions: 30 uM DETA NONOate; 50% of maximal response of 30 uM Compound Y; read-out: sGC_Enz_HTRF_a1b1 EC50/IC50 Abs (Norm) (nM) Binned
T1 construct: purchased Enzo Life Sciences ALX-201-177
T1 sequence (Q02108 1-690): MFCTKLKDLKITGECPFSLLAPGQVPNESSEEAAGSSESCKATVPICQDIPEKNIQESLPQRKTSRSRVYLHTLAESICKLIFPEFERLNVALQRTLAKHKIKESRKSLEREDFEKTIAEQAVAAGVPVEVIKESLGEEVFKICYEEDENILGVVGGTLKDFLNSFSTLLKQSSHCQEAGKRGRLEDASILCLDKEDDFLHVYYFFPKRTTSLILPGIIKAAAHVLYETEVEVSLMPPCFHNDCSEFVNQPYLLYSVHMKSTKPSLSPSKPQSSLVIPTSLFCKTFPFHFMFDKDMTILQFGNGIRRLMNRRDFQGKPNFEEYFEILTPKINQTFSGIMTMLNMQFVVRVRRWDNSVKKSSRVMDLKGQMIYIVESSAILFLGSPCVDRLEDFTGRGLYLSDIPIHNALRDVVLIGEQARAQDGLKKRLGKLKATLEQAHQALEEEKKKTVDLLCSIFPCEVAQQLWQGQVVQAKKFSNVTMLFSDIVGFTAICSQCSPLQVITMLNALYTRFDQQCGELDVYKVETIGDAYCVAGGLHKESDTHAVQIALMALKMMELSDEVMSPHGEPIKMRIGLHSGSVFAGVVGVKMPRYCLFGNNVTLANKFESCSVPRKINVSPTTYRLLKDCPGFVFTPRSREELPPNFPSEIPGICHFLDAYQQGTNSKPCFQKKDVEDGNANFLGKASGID
T1 sequence (Q02153 1-619): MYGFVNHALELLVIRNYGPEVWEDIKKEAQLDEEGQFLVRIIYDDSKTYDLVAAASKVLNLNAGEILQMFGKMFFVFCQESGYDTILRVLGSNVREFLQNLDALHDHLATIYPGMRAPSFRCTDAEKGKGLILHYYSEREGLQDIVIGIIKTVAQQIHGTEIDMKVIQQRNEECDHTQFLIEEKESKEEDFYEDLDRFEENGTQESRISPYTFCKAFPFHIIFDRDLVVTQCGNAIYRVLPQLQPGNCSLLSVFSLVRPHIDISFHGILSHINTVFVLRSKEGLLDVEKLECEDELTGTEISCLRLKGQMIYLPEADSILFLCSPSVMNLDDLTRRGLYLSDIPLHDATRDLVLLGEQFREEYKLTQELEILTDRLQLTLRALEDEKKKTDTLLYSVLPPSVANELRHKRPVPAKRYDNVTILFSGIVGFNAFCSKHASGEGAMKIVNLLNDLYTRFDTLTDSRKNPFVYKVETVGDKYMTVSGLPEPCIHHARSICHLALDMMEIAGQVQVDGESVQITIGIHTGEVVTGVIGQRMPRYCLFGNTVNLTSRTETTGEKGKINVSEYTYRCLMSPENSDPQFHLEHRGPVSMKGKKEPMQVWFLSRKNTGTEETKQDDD
Description: Purified human recombinant soluble guanylate cyclase enzyme α1β1 (h sGC) obtained from Enzo Life Sciences (P/N: ALX-201-177) was used to evaluate the activity of test compounds. The assay reactions contained 0.1 M Tris (pH 8.0), 0.5 mg/mL BSA, 2 mM DTT, 4 mM MgCl2, 30 uM DETA NONOate (Enzo Life Science P/N: ALX-430-014), and 12.5 ng/ml human soluble guanylate cyclase enzyme. […] Guanosine 5'-triphosphate (Sigma-Aldrich P/N: […]) was added to a final concentration of 300 μM and enzyme reactions were incubated (100 μL, 384-well plate format) at 37° C. for 20 minutes. The controls contained 3% DMSO (low control), or 30 uM of Compound Y (high control). After the 20 minute incubation, the reaction was stopped with the addition of 100 μL of ice cold 20% acetic acid. cGMP concentrations in all samples were determined using the cGMP HTRF (Cisbio P/N: 62GM2PEC) assay per manufacturer's instructions. A cGMP standard curve was fit using a 4-parameter fit (log(inhibitor) vs. response-variable slope) using GraphPad Prism Software v.6. Samples were diluted appropriately to ensure that values fell within the linear range of the standard curve. Data were fit using a 4-parameter fit (log(agonist) vs. response-variable slope) using GraphPad Prism Software v.6. The EC50 was interpolated from the curve fit and is defined as the concentration at which the compound elicits 50% of the maximal response of the 30 uM of Compound Y, the high control compound.

[3] = molecular target: T2, soluble guanylate cyclase (sGC) (Homo sapiens, UniProt Q02108+Q02153); assay: sGC-HEK-cGMP assay with LC/MS detection; type: cell-based; conditions: HEK293 whole cells, LC/MS detection of cGMP, 10 μM DETA-NONOate; 50% of high control response (30 μM Compound Y); read-out: Absolute EC50 (nM)- binned (~)
T2 construct: endogenously expressing soluble guanylate cyclase (sGC); endogenous in cells; host or cells: HEK293
T2 sequence (Q02153 1-619): T1 sequence (Q02153 1-619)
T2 sequence (Q02108 1-690): T1 sequence (Q02108 1-690)

[4] = molecular target: T3, sGC enzyme (Homo sapiens, UniProt Q02108+Q02153); assay: cGMP GloSensor cell-based assay, 384-well format; conditions: read-out: sGC_HEK_GloSensor EC50/IC50 Abs (Norm) (nM) Binned (~)
T3 construct: host or cells: HEK293 cells expressing GloSensor 40F cGMP
T3 sequence (Q02153 1-619): T1 sequence (Q02153 1-619)
T3 sequence (Q02108 1-690): T1 sequence (Q02108 1-690)
Excerpt: Human embryonic kidney cells (HEK293) cells expressing GloSensor™ 40F cGMP (Part No: CS182801, Promega) were used to evaluate the activity of test compounds. The luminescent biosensors (engineered luciferase) that were incorporated into these cells detect cGMP formed by the compounds stimulating the sGC enzyme and emit luminescence.
cGMP GloSensor cells were maintained in Dulbecco's Modification of Eagle's Medium (DMEM) supplemented with fetal bovine serum (FBS) (10% final) and hygromycine (200 ug/ml). The day before assay, cells were plated in DMEM with 10% FBS in a 50 μL volume at a density of 1.5×10^4 cells/well in a poly-D-lysine coated 384-well flat white-bottom plate (Corning Cat No 35661). Cells were incubated overnight at 37° C. in a humidified chamber with 5% CO2. The next day, medium was removed and cells were replaced with 40 ul/well of GloSensor™, 2 mM (Promega Cat No E1291). Cells were treated for 90 minutes at 25° C. to allow the substrate to equilibrate in the cells. Test compounds and Diethylenetriamine NONOate (DETA-NONOate) was diluted to 3 mM (20×) in serum-free CO2 independent medium and serially diluted at 4× dilutions to create 5× dose curve from which 10 ul was added to the wells (x μM concentration for test compound solution and 10 μM concentration for DETA-NONOate solution; wherein x is one of the following final concentrations). • 30000 nM • 7500 nM • 1875 nM • 468.75 nM • 117.19 nM • 29.29 nM • 7.32 nM • 1.83 nM • 0.46 nM • 0.114 nM • 0.029 nM
For the kinetics studies, luminescense was measured right away for 0.2 sec per well with Envision (Perkin Elmer model No). For endpoint SAR screening, data were collected after 55 min incubation at room temperature.
Data analysis was carried out as indicated above in Example 2A.

Row | SMILES | EC50 [2] | EC50 [3] | other results
1 | Nc1nc(-c2nn(Cc3ccccc3F)c3ncccc23)ncc1C1CC1 [BAY 41-2272] | – | – | effect on mean arterial pressure [1]: without significant effect; pulmonary vasodilation [1]: dose dependent pulmonary vasodilation; transpulmonary cGMP release [1]: increased
2 | Nc1nc(-c2nn(Cc3ccccc3F)c3ncccc23)nc(N)c1N1CCOCC1 [BAY 41-8543] | – | – | magnitude and duration of pulmonary vasodilation induced by iNO ([1]; after inhaling microparticles, combined with iNO): augmented; effect on mean arterial pressure [1]: without significant effect; pulmonary vasodilation [1]: dose dependent pulmonary vasodilation; transpulmonary cGMP release [1]: increased; systemic arterial oxygenation [1]: increased
3 | O=C(O)CCCCN(CCc1ccccc1OCc1ccc(CCc2ccccc2)cc1)Cc1ccc(C(=O)O)cc1 [BAY 58-2667] | – | – | pulmonary vasodilation and transpulmonary cGMP release after treatment with ODQ ([1]; inhaled microparticles after ODQ): greatly enhanced; effect on mean arterial pressure [1]: without significant effect; pulmonary vasodilation [1]: dose dependent pulmonary vasodilation; transpulmonary cGMP release [1]: increased; systemic arterial oxygenation [1]: increased
4 | O=C(CCl)NCC(=O)Nc1ccnc(-c2cc(-c3ccon3)n(Cc3ccccc3F)n2)n1 [Compound 32] | 100 to 1000 nM | 100 to 1000 nM | –
5 | Fc1ccccc1Cn1nc(-c2ncc(N3CCOCC3)cn2)cc1-c1ccon1 [Compound 37] | ≤ 1000 nM | > 30000 nM | –
6 | O=C(Cc1c[nH]nc1O)Nc1ccnc(-c2cc(-c3ccon3)n(Cc3ccccc3F)n2)n1 [Compound 45] | ≤ 1000 nM | > 1000 nM | –
7 | CS(=O)(=O)C1(C(=O)Nc2ccnc(-c3cc(-c4ccon4)n(Cc4ccccc4F)n3)n2)CC1 [Compound 50] | ≤ 1000 nM | > 1000 nM | –
8 | CC(=O)c1cc(-c2ncc(F)c(N3CCS(=O)(=O)CC3)n2)nn1Cc1ccccc1F [Compound 78] | ≤ 1000 nM | > 1000 nM | –
9 | CC(=O)c1cc(-c2ncc(F)c(O)n2)nn1Cc1cccc(F)c1F [Compound 83] | ≤ 1000 nM | > 1000 nM | –
10 | CC(=O)c1cc(-c2ncc(F)c(NCC(=O)O)n2)nn1Cc1ccccc1F [Compound 86] | ≤ 1000 nM | > 1000 nM | –
11 | CC(=O)c1cc(-c2ncc(F)c(NCC(F)(F)F)n2)nn1Cc1ccccc1F [Compound 204] | – | – | EC50 [4]: 100 to 1000 nM
12 | Cc1ccc(Cn2nc(-c3ncc(F)c(O)n3)cc2-c2ccon2)c(F)c1 [Compound 208] | – | – | EC50 [4]: 100 to 1000 nM
13 | CCOC(=O)C(C)(C)c1nnc(-c2cc(-c3ccon3)n(Cc3ccccc3F)n2)nc1N [Compound 209] | – | – | EC50 [4]: > 1000 nM
14 | Oc1nc(-c2cc(-c3ccon3)n(Cc3ccno3)n2)ncc1F [Compound 211] | – | – | EC50 [4]: > 1000 nM
15 | Cn1nccc1Cn1nc(-c2ncc(F)c(O)n2)cc1-c1ccon1 [Compound 212] | – | – | EC50 [4]: > 1000 nM
16 | Oc1nc(-c2cc(-c3ccon3)n(Cc3ccc(F)cc3)n2)ncc1F [Compound 213] | – | – | EC50 [4]: 100 to 1000 nM
17 | Oc1nc(-c2cc(-c3ccon3)n(CC(F)(F)F)n2)ncc1F [Compound 214] | – | – | EC50 [4]: > 1000 nM
18 | Oc1nc(-c2cc(-c3ccon3)n(Cc3ncccn3)n2)ncc1F [Compound 215] | – | – | EC50 [4]: > 1000 nM
19 | Oc1nc(-c2cc(-c3ccon3)n(Cc3cncnc3)n2)ncc1F [Compound 216] | – | – | EC50 [4]: > 1000 nM
20 | O=c1onc2cnc3ccccc3n12 [ODQ, 1H-[1,2,4]oxadiazolo[4,3-a]quinoxalin-1-one] | – | – | pulmonary vasodilator effect of iNO ([1]; intravenous administration): markedly reduced

Now from value to compound, other results behind:

Row | EC50 [2] | EC50 [3] | SMILES | other results
21 | ≤ 1000 nM | > 30000 nM | O=S1(=O)Cc2cnc(-c3cc(-c4ccon4)n(Cc4ccccc4F)n3)nc2C1 [Compound 3] | –
22 | ≤ 1000 nM | > 1000 nM | NC(=O)C(=O)Nc1ccnc(-c2cc(-c3ccon3)n(Cc3ccccc3F)n2)n1 [Compound 4] | –
23 | ≤ 1000 nM | > 1000 nM | Fc1ccccc1Cn1nc(-c2ncc(F)c(Nc3nnc(C(F)(F)F)s3)n2)cc1-c1ccon1 [Compound 11] | –
24 | ≤ 1000 nM | > 30000 nM | NC(=O)CC(=O)Nc1ccnc(-c2cc(-c3ccon3)n(Cc3ccccc3F)n2)n1 [Compound 17] | –
25 | ≤ 1000 nM | > 1000 nM | O=C(Nc1ccnc(-c2cc(-c3ccon3)n(Cc3ccccc3F)n2)n1)c1cc(O)no1 [Compound 27] | –
26 | ≤ 1000 nM | 100 to 1000 nM | O=C(O)Cc1cn(-c2nc(-c3cc(-c4ccon4)n(Cc4ccccc4F)n3)ncc2F)[nH]c1=O [Compound 38] | –
27 | ≤ 1000 nM | > 1000 nM | O=C(O)Cc1c[nH]n(-c2nc(-c3cc(-c4ccon4)n(Cc4ccccc4F)n3)ncc2F)c1=O [Compound 39] | –
28 | 100 to 1000 nM | < 100 nM | Oc1nnc2n1CCN(c1nc(-c3cc(-c4ccon4)n(Cc4ccccc4F)n3)ncc1F)C2 [Compound 44] | –
29 | ≤ 1000 nM | > 1000 nM | Cn1c(=O)c(CC(N)=O)cn1-c1nc(-c2cc(-c3ccon3)n(Cc3ccccc3F)n2)ncc1F [Compound 56] | –
30 | ≤ 1000 nM | > 1000 nM | O=C(O)C1Cn2c(nnc2C(F)(F)F)CN1c1nc(-c2cc(-c3ccon3)n(Cc3ccccc3F)n2)ncc1F (centres unmarked) [Compound 62] | –
31 | 100 to 1000 nM | 100 to 1000 nM | C[C@](N)(CNc1nc(-c2cc(-c3ccon3)n(Cc3ccccc3F)n2)ncc1F)C(F)(F)F [Compound 108] | –
